What follows are molecules tested on Aβ1-42 production (assay: Cellular assay for inhibition of Aβ1-42 production (H4 APP751 SWE clone 8.20)). Details: 19 h, H4 APP751 SWE clone 8.20 cells, 19 h incubation; read-out: Activity Rating (Aβ42 cellular IC50, given as a number).
Assay type: cell-based
How it was run: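 H4 cells stably expressing APP751 with the Swedish mutation (1.5×10^4 cells/well) incubated with compound for 19 h at 37° C in DMEM with 0.0125% BSA. Secreted Aβ42 measured overnight at 4° C by HTRF-type pairing of 565 (Aβ42 neoepitope) and 26D6 (N-terminal) antibodies. IC50 from curve fit.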

Row | IC50 [nM] | Compound
1 | 19 | COc1cc(Nc2nc3c(s2)CCCC3c2ccccc2)ccc1-n1cnc(C)n1 (stereo not shown) [Example 67, N-(3-methoxy-4-(3-methyl-1H-1,2,4-triazol-1-yl)phenyl)-4-phenyl-4,5,6,7-tetrahydrobenzo[d]thiazol-2-amine]

Same assay, conditions: 19 h, H4 APP751 SWE clone 8.20 cells, 19 h incubation; read-out: Activity Rating (based on Aβ42 cellular IC50 values)

Row | Compound | IC50 [nM]
2 | COc1cc(Nc2nc3n(n2)CCCCC3c2ccc(C#N)cc2)ccc1-n1cnc(Cl)c1 (stereo not shown) [Example 57, 4-(2-(4-(4-chloro-1H-imidazol-1-yl)-3-methoxyphenylamino)-6,7,8,9-tetrahydro-5H-[1,2,4]triazolo[1,5-a]azepin-9-yl)benzonitrile] | 10 to 100
3 | COc1cc(Nc2nc3n(n2)CCCCC3c2ccc(F)cc2)ccc1-c1nc(C)no1 (stereo not shown) [Example 60, 9-(4-fluorophenyl)-N-(3-methoxy-4-(3-methyl-1,2,4-oxadiazol-5-yl)phenyl)-6,7,8,9-tetrahydro-5H-[1,2,4]triazolo[1,5-a]azepin-2-amine] | 100 to 1000
4 | COc1cc(Nc2nc3n(n2)CCCCC3c2ccc(F)cc2)ccc1-c1cc(C)no1 (stereo not shown) [Example 61, 9-(4-fluorophenyl)-N-(3-methoxy-4-(3-methylisoxazol-5-yl)phenyl)-6,7,8,9-tetrahydro-5H-[1,2,4]triazolo[1,5-a]azepin-2-amine] | 100 to 1000
5 | COc1cc(Nc2nc3c(s2)CCCC3c2ccccc2)ccc1-n1cnc(Cl)c1 (stereo not shown) [Example 68, N-(4-(4-chloro-1H-imidazol-1-yl)-3-methoxyphenyl)-4-phenyl-4,5,6,7-tetrahydrobenzo[d]thiazol-2-amine] | 10 to 100
6 | COc1cc(Nc2nc3c(s2)CCCC3c2ccccc2)ccc1-n1cnc(C)c1 (stereo not shown) [Example 71, N-(3-methoxy-4-(4-methyl-1H-imidazol-1-yl)phenyl)-4-phenyl-4,5,6,7-tetrahydrobenzo[d]thiazol-2-amine 2,2,2-trifluoroacetate] | 10 to 100

Second part, the molecule after the results:

Row | IC50 [nM] | Compound
7 | 10 to 100 | COc1cc(Nc2nc3n(n2)CCCCC3c2ccc(F)cc2)ccc1-c1cnnc(C)c1 (stereo not shown) [Example 47, 9-(4-fluorophenyl)-N-(3-methoxy-4-(6-methylpyridazin-4-yl)phenyl)-6,7,8,9-tetrahydro-5H-[1,2,4]triazolo[1,5-a]azepin-2-amine]
8 | < 10 | Fc1ccc(C2CCCCn3nc(Nc4cc(F)c(-n5cnc(Cl)c5)c(F)c4)nc32)cc1 (stereo not shown) [Example 48, N-(4-(4-chloro-1H-imidazol-1-yl)-3,5-difluorophenyl)-9-(4-fluorophenyl)-6,7,8,9-tetrahydro-5H-[1,2,4]triazolo[1,5-a]azepin-2-amine]
9 | < 10 | COc1cc(Nc2nc3n(n2)CCCCC3c2ccc(F)cc2)cc(F)c1-n1cnc(Cl)c1 (stereo not shown) [Example 49, N-(4-(4-chloro-1H-imidazol-1-yl)-3-fluoro-5-methoxyphenyl)-9-(4-fluorophenyl)-6,7,8,9-tetrahydro-5H-[1,2,4]triazolo[1,5-a]azepin-2-amine]
10 | < 10 | COc1cc(Nc2nc3n(n2)CCCCC3c2cc(F)c(F)c(F)c2)ccc1-n1cnc(Cl)c1 (stereo not shown) [Example 50, N-(4-(4-chloro-1H-imidazol-1-yl)-3-methoxyphenyl)-9-(3,4,5-trifluorophenyl)-6,7,8,9-tetrahydro-5H-[1,2,4]triazolo[1,5-a]azepin-2-amine]
11 | < 10 | COc1cc(Nc2nc3n(n2)CCCCC3c2cccc(Cl)c2)ccc1-n1cnc(Cl)c1 (stereo not shown) [Example 53, N-(4-(4-chloro-1H-imidazol-1-yl)-3-methoxyphenyl)-9-(3-chlorophenyl)-6,7,8,9-tetrahydro-5H-[1,2,4]triazolo azepin-2-amine]
12 | < 10 | COc1cc(Nc2nc3n(n2)CCCCC3c2ccccc2F)ccc1-n1cnc(Cl)c1 (stereo not shown) [Example 56, N-(4-(4-chloro-1H-imidazol-1-yl)-3-methoxyphenyl)-9-(2-fluorophenyl)-6,7,8,9-tetrahydro-5H-[1,2,4]triazolo[1,5-a]azepin-2-amine]
13 | 10 to 100 | COc1cc(Nc2nc3c(s2)CCCC3c2ccccc2)ccc1-c1ccnc(C)c1 (stereo not shown) [Example 72, N-(3-methoxy-4-(2-methylpyridin-4-yl)phenyl)-4-phenyl-4,5,6,7-tetrahydrobenzo[d]thiazol-2-amine 2,2,2-trifluoroacetate]

Source: patent US8349880B2, “Bicyclic compounds for the reduction of beta-amyloid production” (Bristol-Myers Squibb Company, priority 2009, dated 2013)
